# Like-named read-outs stand apart in the source and are kept apart here.
# Experiment: Solubility (24 hrs equilibration at RT, HPLC-UV)
# Format: physicochemical
# Conditions: thermodynamic from solid, target concentration 5 mg/ml, 24 hrs at RT
# Experimental: Representative Compounds of the Disclosure were tested for solubity (Table 4) as follows:
# 0.1 M Phosphate Buffer Ionic Strength ˜0.15M
# Simulated Intestinal Fluid pH 7.5 (USP)
# Weigh ˜2 mgs of compound into clean glass 1 dram vails.
# Add ˜[…] of appropriate media to vial to yield a target concentration of 5 mg/ml.
# Place vials on a rotating shaker and equilibrate for 24 hrs. at RT.
# Remove supernatant to microcentrifuge tubes and centrifuge at 1300 rpm for 30 minutes.
# Remove an aliquot of supernatant, dilute accordingly with acetonitrile.
# Assay Samples by HPLC-UV Against Standards.
# [1] = biorelevant, Simulated Intestinal Fluid pH 7.5 (USP), read-out: Solubility SIF
# [2] = pH 7.4, aqueous buffer, 0.1 M Phosphate Buffer, read-out: Solubility pH 7.4
SMILES,solubility at 24 h [1] [µg/mL],solubility at 24 h [2] [µg/mL]
"Cc1cc(C)cc(C(=O)N(NC(=O)c2ccc3c(c2)B(O)NC3)C(C)(C)C)c1 [compound 1, N′-(tert-butyl)-N′-(3,5-dimethylbenzoyl)-1-hydroxy-2,3-dihydro-1H-benzo[c][1,2]azaborole-6-carbohydrazide]",4870,> 5000
"Cc1cc(C)cc(C(=O)N(NC(=O)c2ccc3c(c2)N=COB3O)C(C)(C)C)c1 [compound 3, N′-(tert-butyl)-N′-(3,5-dimethylbenzoyl)-1-hydroxy-1H-benzo[c][1,5,2]oxazaborinine-6-carbohydrazide]",90.2,39.4
"Cc1cc(C)cc(C(=O)NNC(=O)c2ccc3c(c2)N=C(C(F)(F)F)OB3O)c1 [compound 6, N′-(3,5-dimethylbenzoyl)-1-hydroxy-3-(trifluoromethyl)-1H-benzo[c][1,5,2]oxazaborinine-6-carbohydrazide]",0.4,1.7
"CNCc1ccc(C(=O)NN(C(=O)c2cc(C)cc(C)c2)C(C)(C)C)cc1B(O)O [compound 10, (5-(2-(tert-butyl)-2-(3,5-dimethylbenzoyl)hydrazine-1-carbonyl)-2-((methylamino)methyl)phenyl)boronic acid]",4800,4870
"Cc1cc(C)cc(C(=O)N(NC(=O)c2ccc(CN(C)C)c(B(O)O)c2)C(C)(C)C)c1 [compound 11, (5-(2-(tert-butyl)-2-(3,5-dimethylbenzoyl)hydrazine-1-carbonyl)-2-((dimethylamino)methyl)phenyl)boronic acid]",4650,4700
"Cc1cc(C)cc(C(=O)N(NC(=O)c2ccc(B(O)O)c(NCC#N)c2)C(C)(C)C)c1 [compound 17, (4-(2-(tert-butyl)-2-(3,5-dimethylbenzoyl)hydrazine-1-carbonyl)-2-((cyanomethyl)amino)phenyl)boronic acid]",59.3,0.13
"Cc1cc(C)cc(C(=O)N(NC(=O)c2ccc3c(c2)B(O)NCC3)C(C)(C)C)c1 [compound 18, N′-(tert-butyl)-N′-(3,5-dimethylbenzoyl)-1-hydroxy-1,2,3,4-tetrahydrobenzo[c][1,2]azaborinine-7-carbohydrazide]",492,505
"Cc1cc(C)cc(C(=O)N(NC(=O)c2ccc(CC#N)c(B(O)O)c2)C(C)(C)C)c1 [compound 19, (5-(2-(tert-butyl)-2-(3,5-dimethylbenzoyl)hydrazine-1-carbonyl)-2-(cyanomethyl)phenyl)boronic acid]",31.4,16.8
"Cc1cc(C)cc(C(=O)N(NC(=O)c2ccc3c(c2)B(O)ON=C3)C(C)(C)C)c1 [compound 20, N′-(tert-butyl)-N′-(3,5-dimethylbenzoyl)-1-hydroxy-1H-benzo[d][1,2,6]oxazaborinine-7-carbohydrazide]",3330,2680

# The remaining lines, values ahead:
solubility at 24 h [1] [µg/mL],solubility at 24 h [2] [µg/mL],SMILES
4050,4310,"CC1=Nc2cc(C(=O)NN(C(=O)c3cc(C)cc(C)c3)C(C)(C)C)ccc2B(O)O1 [compound 2, N′-(tert-butyl)-N′-(3,5-dimethylbenzoyl)-1-hydroxy-3-methyl-1H-benzo[c][1,5,2]oxazaborinine-6-carbohydrazide]"
2640,3560,"Cc1cc(C)cc(C(=O)N(NC(=O)c2ccc3c(c2)NC(=S)N(c2ccccc2)B3O)C(C)(C)C)c1 [compound 4, N′-(tert-butyl)-N′-(3,5-dimethylbenzoyl)-1-hydroxy-2-phenyl-3-thioxo-1,2,3,4-tetrahydrobenzo[c][1,5,2]diazaborinine-6-carbohydrazide]"
10.7,4.1,"Cc1cc(C)cc(C(=O)N(NC(=O)c2ccc(B(O)O)c(NS(=O)(=O)c3ccccc3)c2)C(C)(C)C)c1 [compound 7, (4-(2-(tert-butyl)-2-(3,5-dimethylbenzoyl)hydrazine-1-carbonyl)-2-(phenylsulfonamido)phenyl)boronic acid]"
121,42.3,"COc1cccc(C(=O)NN(C(=O)c2ccc3c(c2)B(O)OC3)C(C)(C)C)c1C [compound 8, N-(tert-butyl)-1-hydroxy-N′-(3-methoxy-2-methylbenzoyl)-1,3-dihydrobenzo[c][1,2]oxaborole-6-carbohydrazide]"
4510,4920,"COc1cccc(C(=O)NN(C(=O)c2ccc3c(c2)B(O)NC3)C(C)(C)C)c1C [compound 9, N-(tert-butyl)-1-hydroxy-N′-(3-methoxy-2-methylbenzoyl)-2,3-dihydro-1H-benzo[c][1,2]azaborole-6-carbohydrazide]"
3800,3760,"COc1cccc(C(=O)NN(C(=O)c2ccc3c(c2)N=C(C)OB3O)C(C)(C)C)c1C [compound 12, N-(tert-butyl)-1-hydroxy-N′-(3-methoxy-2-methylbenzoyl)-3-methyl-1H-benzo[c][1,5,2]oxazaborinine-6-carbohydrazide]"
334,221,"COc1cccc(C(=O)NN(C(=O)c2ccc3c(c2)N=COB3O)C(C)(C)C)c1C [compound 13, N-(tert-butyl)-1-hydroxy-N′-(3-methoxy-2-methylbenzoyl)-1H-benzo[c][1,5,2]oxazaborinine-6-carbohydrazide]"
417,540,"COc1cccc(C(=O)NN(C(=O)c2ccc3c(c2)NC(=O)N(c2ccccc2)B3O)C(C)(C)C)c1C [compound 15, N-(tert-butyl)-1-hydroxy-N′-(3-methoxy-2-methylbenzoyl)-3-oxo-2-phenyl-1,2,3,4-tetrahydrobenzo[c][1,5,2]diazaborinine-6-carbohydrazide]"
24.1,6.9,"COc1cccc(C(=O)NN(C(=O)c2ccc(B(O)O)c(NS(=O)(=O)c3ccccc3)c2)C(C)(C)C)c1C [compound 16, (4-(1-(tert-butyl)-2-(3-methoxy-2-methylbenzoyl)hydrazine-1-carbonyl)-2-(phenylsulfonamido)phenyl)boronic acid]"

# Source: patent publication US9944659B2, “Boron-containing diacylhydrazine compounds” (Intrexon Corporation, priority 2014, dated 2018)
